Assay results taken from patent US4952572A (priority 1989, dated 1990).

Experiments:
[1] = tested on: Cryptococcus neoformans; experiment: In vitro antifungal activity, summary; assay type: cell-based; conditions: relative to BU-3420T acetate
[2] = tested on: Moser cells; experiment: In vitro cytotoxicity, neutral red; assay type: cell-based, human
[3] = Solubility; assay type: physicochemical
[4] = tested on: Gram-positive aerobic bacteria; assay type: cell-based; conditions: in words
[5] = tested on: Gram-negative organisms; assay type: cell-based; conditions: in words; relative to Gram-positive aerobic bacteria
[6] = Acute toxicity in mice, intramuscular; assay type: in vivo; conditions: 5 mg/kg
[7] = tested on: P388/VCR cells; experiment: In vitro cytotoxicity, viable cell count; conditions: in words
Procedure: (§1) On the other hand, the cytotoxic activities against P388 and P388/VCR cells were determined by counting the number of viable cells.

[8] = tested on: Staphylococcus aureus Smith; experiment: In vivo activity against S. aureus Smith infection (ip) in mice; conditions: im, single
Procedure: Mice were challenged intraperitoneally with 100 times the lethal dose of the pathogen in a 5% suspension of hog gastric mucin (American Laboratory, Omaha, Neb.). BU-3420T was administered to mice intramuscularly just before the bacterial challenge.

[9] = tested on: murine and human tumor cell lines; experiment: In vitro cytotoxicity, summary; conditions: in words
Procedure: as §1

Q: Which “susceptibility of Cryptococcus neoformans” value [1] does the source give for `C[C@@H]1[C@H](O)[C@@H](C)/C=C/C=C/C=C/C=C/C=C/C=C/C=C/[C@H](O[C@@H]2O[C@H](C)[C@@H](O)[C@H](N)[C@@H]2O)C[C@@H]2O[C@](O)(C[C@@H](O)C[C@@H](O)[C@H](O)CC[C@@H](O)C[C@@H](O)CC(=O)O[C@H]1C)C[C@H](O)[C@H]2C(=O)O` [Amphotericin B] here?
A: more susceptible to amphotericin B

Q: With `COC1=C(C(=O)O)C(C)C23OC24c2cc(OC(C)=O)c5c(c2NC3C#C/C=C\C#CC14)C(=O)c1c(OC(C)=O)ccc(OC(C)=O)c1C5=O` (stereo not shown) [BU-3420T acetate] as the molecule, how does the IC50 ([2]; Homo sapiens, Moser, 72 hours) read?
A: 0.003 ng/mL

Q: And the solubility ([3]; in organic solvents such as chloroform, methanol and ethanol, relative to BU-3420T)?
A: much improved solubility

Q: And the antibacterial activity [4]?
A: intensely potent activity

Q: And the “susceptibility of Gram-negative organisms” value [5]?
A: a little less susceptible

Q: What does the source list for `COC1=C(C(=O)O)C(C)C23OC24c2cc(O)c5c(c2NC3C#C/C=C\C#CC14)C(=O)c1c(O)ccc(O)c1C5=O` (stereo not shown) [BU-3420T]?
A: toxicity [6]: did not show any toxicity; cytotoxicity against VCR-sensitive vs resistant P388 cells [7]: same cytotoxicities; No. of survivor/tested ([8]; 0.01 mg/kg): 0/5; No. of survivor/tested ([8]; 0.04 mg/kg): 0/5; solubility ([3]; in chloroform, ethyl acetate, methanol and ethanol): slightly soluble; solubility ([3]; in dimethyl sulfoxide, dimethylformamide and dioxane): soluble; solubility ([3]; in water and n-hexane): insoluble; antibacterial activity [4]: intensely potent activity; cytotoxicity [9]: potent cytotoxicity; susceptibility of Gram-negative organisms [5]: a little less susceptible

Q: Which “resistance of Moser and HCT-116 relative to B16-F10” value ([2]; Moser and HCT-116 cells vs B16-F10) does the source give for `CO[C@@]12[C@H](COC(N)=O)C3=C(C(=O)C(C)=C(N)C3=O)N1C[C@@H]1N[C@@H]12` [Mitomycin C] here?
A: slightly more resistant
